Columns and labels:
[1] = molecular target: T1, Bile acid receptor (Homo sapiens) (UniProt Q96RI1); assay: Agonist activity at human FXR expressed in CHO cells assessed as maximum efficacy incubated for 22 hrs by luciferase reporter assay relative to control; format: cell-based
T1 sequence (whole entry): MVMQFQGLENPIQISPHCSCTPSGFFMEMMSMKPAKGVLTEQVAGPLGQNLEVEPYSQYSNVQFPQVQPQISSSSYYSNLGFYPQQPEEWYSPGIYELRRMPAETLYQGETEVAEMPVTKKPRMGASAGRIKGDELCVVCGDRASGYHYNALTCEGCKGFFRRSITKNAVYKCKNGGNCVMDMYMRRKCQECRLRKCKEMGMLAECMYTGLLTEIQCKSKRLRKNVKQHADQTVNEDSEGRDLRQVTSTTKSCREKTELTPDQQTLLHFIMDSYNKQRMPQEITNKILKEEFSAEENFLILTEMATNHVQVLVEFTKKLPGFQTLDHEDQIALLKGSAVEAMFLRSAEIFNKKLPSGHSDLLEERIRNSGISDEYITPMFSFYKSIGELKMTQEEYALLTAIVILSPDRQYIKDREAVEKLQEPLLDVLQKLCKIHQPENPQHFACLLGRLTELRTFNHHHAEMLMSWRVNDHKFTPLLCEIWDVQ

Bile acid receptor [2] = molecular target: T2, Bile acid receptor (Homo sapiens, UniProt Q96RI1); assay: Agonist activity at FXR (unknown origin)
T2 sequence (Q96RI1 whole entry): T1 sequence (whole entry)

Bile acid receptor [3] = molecular target: T2, Bile acid receptor; assay: Agonist activity at FXR in HEK293T cells by steady-glo luciferase assay; format: cell-based
[4] = molecular target: Voltage-gated inwardly rectifying potassium channel KCNH2 (Homo sapiens, UniProt Q12809); assay: Inhibition of hERG; format: toxicity
Bile acid receptor [5] = molecular target: T2, Bile acid receptor; assay: Agonist activity at human GST-tagged FXR incubated for 1 hrs by alphascreen assay
Bile acid receptor [6] = molecular target: T2, Bile acid receptor; assay: Agonist activity at human FXR in expressed in CHO cells by luciferase reporter assay; format: cell-based
Bile acid receptor [7] = molecular target: T2, Bile acid receptor; assay: Agonist activity at FXR in human HeLa cells by Dual-Glo luciferase assay; format: cell-based
Bile acid receptor [8] = molecular target: T2, Bile acid receptor; assay: Agonist activity at human FXR incubated for 24 hrs by luciferase reporter assay
Mus musculus [9] = assay: Anti-NASH activity in nonalcoholic steatohepatitis C57BL/6 mouse model assessed as decrease in level of serum AST 10 mg/kg, iv relative to control; format: functional; set-up: scale not given: the % may be the effect or the level left
Mus musculus [10] = assay: Anti-NASH activity in nonalcoholic steatohepatitis C57BL/6 mouse model assessed as decrease in level of serum ALT 10 mg/kg, iv relative to control; format: functional; set-up: scale not given: the % may be the effect or the level left
Bile acid receptor [11] = molecular target: T2, Bile acid receptor; assay: Agonist activity at human FXR
[12] = Stability in human plasma assessed as half life; format: ADME, cell-free
Bile acid receptor [13] = molecular target: T2, Bile acid receptor; assay: Agonist activity at FXR (unknown origin) incubated for 180 mins by TR-FRET assay

Sequence of Voltage-gated inwardly rectifying potassium channel KCNH2 (Q12809 whole entry): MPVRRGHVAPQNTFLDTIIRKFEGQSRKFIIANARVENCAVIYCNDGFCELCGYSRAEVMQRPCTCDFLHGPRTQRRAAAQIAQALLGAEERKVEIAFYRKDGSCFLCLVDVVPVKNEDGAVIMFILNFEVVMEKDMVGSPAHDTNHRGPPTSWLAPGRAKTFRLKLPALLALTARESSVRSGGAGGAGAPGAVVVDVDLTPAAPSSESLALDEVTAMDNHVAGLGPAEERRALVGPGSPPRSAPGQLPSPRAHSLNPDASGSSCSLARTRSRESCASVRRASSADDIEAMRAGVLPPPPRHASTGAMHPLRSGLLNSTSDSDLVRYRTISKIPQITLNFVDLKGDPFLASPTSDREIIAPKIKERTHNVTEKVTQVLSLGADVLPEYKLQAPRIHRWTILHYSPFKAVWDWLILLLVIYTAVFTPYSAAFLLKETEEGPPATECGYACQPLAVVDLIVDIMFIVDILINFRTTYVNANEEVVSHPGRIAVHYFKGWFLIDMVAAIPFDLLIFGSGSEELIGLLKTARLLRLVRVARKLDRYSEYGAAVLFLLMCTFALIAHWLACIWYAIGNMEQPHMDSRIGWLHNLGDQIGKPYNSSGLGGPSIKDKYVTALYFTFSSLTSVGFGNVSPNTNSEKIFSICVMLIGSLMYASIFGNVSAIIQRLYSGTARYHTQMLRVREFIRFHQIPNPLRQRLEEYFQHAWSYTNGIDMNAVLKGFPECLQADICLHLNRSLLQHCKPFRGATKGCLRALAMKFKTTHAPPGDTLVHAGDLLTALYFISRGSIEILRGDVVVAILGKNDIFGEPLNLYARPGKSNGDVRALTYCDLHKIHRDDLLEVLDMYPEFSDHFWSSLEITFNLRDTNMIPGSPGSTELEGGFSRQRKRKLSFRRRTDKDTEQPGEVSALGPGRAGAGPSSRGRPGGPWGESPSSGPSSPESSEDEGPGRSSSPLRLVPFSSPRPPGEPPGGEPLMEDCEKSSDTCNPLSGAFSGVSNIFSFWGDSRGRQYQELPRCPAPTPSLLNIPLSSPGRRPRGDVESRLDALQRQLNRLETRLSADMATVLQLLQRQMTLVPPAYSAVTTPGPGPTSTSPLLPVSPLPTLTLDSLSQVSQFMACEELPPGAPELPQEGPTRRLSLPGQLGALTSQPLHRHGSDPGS

## COc1cc(Cl)cc(N(CC23CCC(c4ccc(OC)c(C#N)c4)(CC2)CC3)C(=O)c2ccncc2C)c1
[1]
  Emax: 28%

## O=C(O)c1ccc(-c2nc(N3[C@@H]4CC[C@H]3C[C@@H](OCc3c(-c5c(Cl)cccc5Cl)noc3C3CC3)C4)no2)cc1
Bile acid receptor [2]
  EC50: < 50 nM

## O=C(O)c1cc(F)c2nc(N3[C@@H]4CC[C@H]3C[C@@H](OCc3c(-c5c(Cl)cccc5Cl)noc3C3CC3)C4)sc2c1
Bile acid receptor [2]
  EC50: 7.7 nM

## Cc1cc(OCc2c(-c3c(Cl)cccc3Cl)noc2C2CC2)ccc1C1=NOC(c2ccc(C(=O)O)nc2)C1 (stereo not drawn)
Bile acid receptor [3]
  EC50: 5 nM
[4]
  IC50: > 30000 nM

## O=C1CCc2cc(OCc3c(-c4c(Cl)cccc4Cl)noc3C3CC3)ccc2N1c1ncc(O)cc1F
Bile acid receptor [5]
  EC50: 9 nM

## CC[C@H]1[C@@H](O)[C@@H]2[C@H](CC[C@]3(C)[C@@H]([C@H](C)COC(=O)NS(=O)(=O)c4ccc(OC(C)C)cc4)CC[C@@H]23)[C@@]2(C)CC[C@@H](O)C[C@@H]12
Bile acid receptor [6]
  EC50: < 1 nM

## O=C(O)c1cccc(NC(=O)c2ccc(Oc3ccccc3)cc2)c1
Bile acid receptor [7]
  EC50: 10 nM

## CC[C@H]1[C@@H](O)[C@@H]2[C@H](CC[C@]3(C)[C@@H]([C@H](C)CCNC(=O)NS(=O)(=O)c4ccc(C)cc4)CC[C@@H]23)[C@@]2(C)CC[C@@H](O)[C@H](F)[C@@H]12
Bile acid receptor [8]
  EC50: 18 nM

## O=C(O)c1cccc(NC(=O)c2ccc(OCc3ccccc3)cc2)c1
Bile acid receptor [7]
  EC50: 9.1 nM

## CC(C)n1ncc(-c2c(Cl)cccc2Cl)c1COc1ccc(N(C)Cc2cccc(C(=O)O)c2)c(C(F)(F)F)c1
Mus musculus [9]
  Activity: 59%
Mus musculus [10]
  Activity: 63%

## CC(C)Oc1cc(C(=O)NS(=O)(=O)N2CCCCC2)cc2sc(O[C@@H]3CO[C@H]4[C@H]3OC[C@H]4OCc3c(-c4c(Cl)cccc4Cl)noc3C3CC3)nc12
Bile acid receptor [11]
  EC50: < 30 nM

## Cc1ccc(Cl)cc1N1CCN(C(=O)C23CC4CC(CC(C4)C2)C3)CC1
[12]
  half-life: > 8.33 h

## O=C(O)CNC(=O)c1ccc(N2CCC3(CC2)CC(OCc2c(-c4ccccc4OC(F)(F)F)noc2C2CC2)CO3)nc1 (stereo not drawn)
Bile acid receptor [13]
  EC50: 1.7 nM

## CC(C)Oc1cc(C(=O)O)cc2sc(O[C@@H]3CO[C@H]4[C@@H]3OC[C@H]4OCc3c(-c4ccccc4OC(F)(F)F)noc3C3CC3)nc12
Bile acid receptor [11]
  EC50: < 30 nM

## COc1cccc(-c2ccc(NC(=O)C3=C(C(=O)O)CCC3)c(F)c2)c1 [VIDOFLUDIMUS]
Bile acid receptor [2]
  EC50: 450 nM

## CC[C@H]1[C@@H](O)[C@@H]2[C@H](CC[C@]3(C)[C@@H]([C@H](C)CCNC(=O)NS(=O)(=O)c4ccc(C(C)(C)C)cc4)CC[C@@H]23)[C@@]2(C)CC[C@@H](O)[C@H](F)[C@@H]12
Bile acid receptor [8]
  EC50: 19 nM

## O=C(O)c1ccc(N2C(=O)CCc3cc(OCc4c(-c5c(Cl)cccc5Cl)noc4C4CC4)ccc32)nc1
Bile acid receptor [5]
  EC50: 20 nM

## Cc1cc(OCc2c(-c3c(Cl)cccc3Cl)noc2C2CC2)ccc1C1=NOC(c2cccc(C(=O)O)c2)C1 (stereo not drawn)
[4]
  IC50: > 30000 nM

## Cc1cc(OCc2c(-c3c(Cl)cccc3Cl)noc2C2CC2)ccc1C1=NOC(c2cc(C(=O)O)ccn2)C1 (stereo not drawn)
[4]
  IC50: > 30000 nM

## O=C(O)c1cccc(NC(=O)c2ccc(OCCCCc3ccccc3)cc2)c1
Bile acid receptor [7]
  EC50: 26 nM

## Cc1cc(OCc2c(-c3c(Cl)cccc3Cl)noc2C2CC2)ccc1C1=NOC(c2cc(C(=O)O)nn2C(C)C)C1 (stereo not drawn)
[4]
  IC50: > 30000 nM

— ChEMBL document CHEMBL5233278, “Recent Advances in the Medicinal Chemistry of Farnesoid X Receptor” (J Med Chem, 2021)
